Values of other authors as cited in patent publication US20180200208A1, “COMPOSITIONS FOR IMPROVING OR MAINTAINING MYOCARDIAL FUNCTION” (RepoCeuticals ApS, priority 2015, published 2018).
One block for each molecule: values may come before it.

Key:
recombinant MT2 receptor = biological target: T1, recombinant MT2 receptor (Homo sapiens, UniProt P49286); settings: relative to melatonin
T1 sequence (P49286 1-362): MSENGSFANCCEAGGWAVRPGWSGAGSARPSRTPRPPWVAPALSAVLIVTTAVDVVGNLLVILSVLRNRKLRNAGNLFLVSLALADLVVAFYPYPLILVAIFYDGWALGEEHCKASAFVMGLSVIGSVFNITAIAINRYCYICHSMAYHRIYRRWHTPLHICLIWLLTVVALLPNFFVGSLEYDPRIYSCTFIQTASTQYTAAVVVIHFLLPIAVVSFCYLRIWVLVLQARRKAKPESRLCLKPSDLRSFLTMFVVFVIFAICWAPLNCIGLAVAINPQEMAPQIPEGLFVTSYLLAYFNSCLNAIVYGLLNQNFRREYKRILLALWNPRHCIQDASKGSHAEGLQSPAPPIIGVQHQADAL

recombinant MT1 receptor = recombinant MT1 receptor (Homo sapiens, UniProt P48039); settings: relative to melatonin
[1] = at 2-8° C.
[2] = tested on: patients with primary sleep disorders; settings: oral doses of up to 5 mg

Chain of recombinant MT1 receptor (P48039 whole entry): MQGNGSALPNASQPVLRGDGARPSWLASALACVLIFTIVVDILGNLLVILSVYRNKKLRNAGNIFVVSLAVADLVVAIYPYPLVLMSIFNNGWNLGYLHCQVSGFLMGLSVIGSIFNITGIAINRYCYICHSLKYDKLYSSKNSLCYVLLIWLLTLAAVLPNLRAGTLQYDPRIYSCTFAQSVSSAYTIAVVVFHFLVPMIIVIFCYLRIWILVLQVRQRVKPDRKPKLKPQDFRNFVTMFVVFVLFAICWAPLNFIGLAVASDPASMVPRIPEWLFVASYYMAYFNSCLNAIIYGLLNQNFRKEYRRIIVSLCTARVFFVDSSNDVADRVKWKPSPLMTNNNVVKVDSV

SMILES: COC1=C(OC)C(=O)C(C/C=C(\C)CC/C=C(\C)CC/C=C(\C)CC/C=C(\C)CC/C=C(\C)CC/C=C(\C)CC/C=C(\C)CC/C=C(\C)CC/C=C(\C)CCC=C(C)C)=C(C)C1=O [Coenzyme Q10]
solubility in ethanol, dimethyl sulfoxide and various oils: can be dissolved
solubility in water: almost water-insoluble

SMILES: O=C1C[C@@H](c2ccc(O)cc2)Oc2cc(O)cc(O)c21 [Naringenin, naringenin]
solubility in ethanol, dimethyl sulfoxide and various oils: readily soluble
solubility in water: almost insoluble in water

SMILES: CC(=O)NCCc1c[nH]c2ccc(O)cc12 [N-acetylserotonin]
affinity for recombinant MT2 receptor as % of that of melatonin (recombinant MT2 receptor): 0.22%
affinity for recombinant MT1 receptor as % of that of melatonin (recombinant MT1 receptor): 0.14%

SMILES: COc1ccc2[nH]cc(CCNC(C)=O)c2c1 [Melatonin, N-acetyl-5-methoxytryptamine]
increase of sleep duration (average) [2]: 7 to 8 min
reduction of sleep latency (average) [2]: 7 to 8 min
solubility in DMSO: soluble in DMSO
solubility in water: insoluble in water

More lines, now with the values ahead:

solubility in ethanol, dimethyl sulfoxide and various oils: readily soluble
solubility in water: almost insoluble in water
SMILES: Oc1ccc(C=Cc2cc(O)cc(O)c2)cc1 [Resveratrol, resveratrol]

affinity for recombinant MT2 receptor as % of that of melatonin (recombinant MT2 receptor): 13%
affinity for recombinant MT1 receptor as % of that of melatonin (recombinant MT1 receptor): 20%
SMILES: COc1cc2c(CCNC(C)=O)c[nH]c2cc1O [6-OHM, 6-hydroxymelatonin]

solubility in DMSO: soluble in DMSO
solubility in water: insoluble in water
long-term stability [1]: good long-term stability
SMILES: COc1ccc(NC=O)c(C(=O)CCNC(C)=O)c1 [AFMK, N^1-acetyl-N^2-formyl-5-methoxykynuramine]
